Measured values published in patent US10456379B2, “Imidazole-based antimicrobial agents” (priority 2014, dated 2019).
≈ marks a conversion by molar mass, not a printed value.

Legend:
[1] = test system: Streptococcus pneumoniae (Chester, ATCC49619); assay: Broth microdilution MIC assay, Streptococcus pneumoniae; assay type: cell-based; settings: for Antibacterial activity Streptococcus pneumoniae: MIC class score, MIC100, broth microdilution; for MIC: Streptococcus pneumoniae, ATCC49619, read-out: Antibacterial activity, SP (Streptococcus pneumoniae), MIC class
[2] = test system: Staphylococcus aureus MRSA (COL); assay: Broth microdilution MIC assay, Staphylococcus aureus MRSA (COL); assay type: cell-based; settings: for Antibacterial activity Staphylococcus aureus (MRSA): MIC class score, MIC100, broth microdilution, COL strain

SMILES | Antibacterial activity Streptococcus pneumoniae [1] | MIC [1] [mg/L] | further results
Cc1nc(-c2ccc(-c3cc(F)ccc3C(F)(F)F)o2)[nH]c1-c1ccccc1 [31a] | 3 (MIC100 of 2-5 μg/ml) |  | 
CCCc1nc(-c2coc(-c3ccccc3C(F)(F)F)c2)[nH]c1C [Compound 112] |  |  | Antibacterial activity Staphylococcus aureus (MRSA) [2]: 3 (MIC100 of 3-10 μg/ml)
CCCc1nc(-c2csc(-c3ccccc3C(F)(F)F)c2)[nH]c1C [Compound 113] |  |  | Antibacterial activity Staphylococcus aureus (MRSA) [2]: 3 (MIC100 of 3-10 μg/ml)
CCCc1nc(-c2sc(-c3ccccc3C(F)(F)F)c3c2OCCO3)[nH]c1C [Compound 114] |  |  | Antibacterial activity Staphylococcus aureus (MRSA) [2]: 3 (MIC100 of 3-10 μg/ml)
Cc1nc(-c2ccc(-c3cccc(Cl)c3)o2)[nH]c1-c1ccccc1 [compound 4] |  | < 1 | MIC ([2]; Staphylococcus aureus, MRSA, read-out: Antibacterial activity, MRSA (Staphylococcus aureus MRSA), MIC class): 11 to 20 mg/L (≈ 32.9 to 59.7 µM)
Cc1nc(-c2ccc(-c3ccc(Cl)cc3)o2)[nH]c1-c1ccccc1 [compound 5] |  | < 1 | 
Cc1[nH]c(-c2ccc(-c3ccc(F)cc3)s2)nc1-c1ccccc1 [compound 7] |  | 2 to 5 (≈ 5.98 to 15 µM) | 
Cc1[nH]c(-c2cc(C)n(-c3ccc(Cl)cc3)c2C)nc1-c1ccccc1 [compound 8] | 3 (MIC100 of 2-5 μg/ml) | 2 to 5 (≈ 5.53 to 13.8 µM) | 
Cc1[nH]c(-c2cc(C)n(-c3ccc(F)cc3F)c2C)nc1-c1ccccc1 [compound 9] |  | 2 to 5 (≈ 5.5 to 13.8 µM) | 
Cc1[nH]c(-c2cc(C)n(-c3ccc(F)c(F)c3F)c2C)nc1-c1ccccc1 [compound 10] |  | 2 to 5 (≈ 5.24 to 13.1 µM) | 
Cc1[nH]c(-c2csc(-c3ccc(F)cc3)n2)nc1-c1ccccc1 [compound 11] |  | 2 to 5 (≈ 5.96 to 14.9 µM) | 
Cc1[nH]c(-c2ccc(-c3cccc(Cl)c3)s2)nc1-c1ccccc1 [compound 12] |  | 2 to 5 (≈ 5.7 to 14.3 µM) | 
Cc1[nH]c(-c2ccc(-c3cccc(Br)c3)s2)nc1-c1ccccc1 [compound 13] |  | 2 to 5 (≈ 5.06 to 12.6 µM) | 
Cc1[nH]c(-c2csc(-c3cccc(Br)c3)n2)nc1-c1ccccc1 [compound 14] |  | 2 to 5 (≈ 5.05 to 12.6 µM) | 
Cc1nc(-c2ccc(-c3ccccc3C(F)(F)F)o2)[nH]c1-c1ccccc1Cl [compound 20] |  | < 1 | 
Cc1[nH]c(-c2ccc(-c3ccccc3C(F)(F)F)o2)nc1-c1ccc(Br)cc1 [compound 25] | 3 (MIC100 of 2-5 μg/ml) | 2 to 5 (≈ 4.47 to 11.2 µM) | 
Cc1[nH]c(-c2ccc(-c3ccccc3OC(F)(F)F)o2)nc1-c1ccc(C(F)(F)F)cc1 [compound 26] |  | 2 to 5 (≈ 4.42 to 11.1 µM) | 
C#Cc1ccc(-c2[nH]c(-c3ccc(-c4ccccc4C(F)(F)F)o3)nc2C)cc1 [compound 27] |  | < 1 | 
CCc1ccc(-c2[nH]c(-c3ccc(-c4ccccc4C(F)(F)F)o3)nc2C)cc1 [compound 28] |  | 2 to 5 (≈ 5.05 to 12.6 µM) | 
COc1ccc(-c2ccc(-c3nc(C)c(-c4ccccc4)[nH]3)o2)c(C(F)(F)F)c1 [compound 31] |  | < 1 | 
Cc1nc(-c2ccc(-c3cc(C(F)(F)F)cc(C(F)(F)F)c3)o2)[nH]c1-c1ccccc1 [compound 35] | 2 (MIC100 of 6-10 μg/ml) |  | 
Cc1nc(-c2ccc(-c3cc(C(F)(F)F)ccc3Cl)o2)[nH]c1-c1ccccc1 [compound 40] | 2 (MIC100 of 6-10 μg/ml) | 6 to 10 (≈ 14.9 to 24.8 µM) | 
Cc1ccc(-c2ccc(-c3nc(-c4ccccc4)c(C)[nH]3)o2)cc1 [compound 52] |  | 6 to 10 (≈ 19.1 to 31.8 µM) | 

SMILES | Antibacterial activity Streptococcus pneumoniae [1] | MIC [1] [mg/L] | further results
CCc1ccc(-c2ccc(-c3nc(-c4ccccc4)c(C)[nH]3)o2)cc1 [compound 53] | 3 (MIC100 of 2-5 μg/ml) | 2 to 5 (≈ 6.09 to 15.2 µM) | 
Cc1ccc(-c2ccc(-c3nc(-c4ccccc4)c(C)[nH]3)s2)cc1 [compound 54] | 2 (MIC100 of 6-10 μg/ml) | 6 to 10 (≈ 18.2 to 30.3 µM) | 
Cc1ccc(-c2ncc(-c3nc(-c4ccccc4)c(C)[nH]3)s2)cc1 [compound 55] |  | 2 to 5 (≈ 6.03 to 15.1 µM) | 
Cc1ccc(-c2nc(-c3nc(-c4ccccc4)c(C)[nH]3)cs2)cc1 [compound 56] |  | 2 to 5 (≈ 6.03 to 15.1 µM) | 
Cc1ccc(-c2nc(-c3nc(-c4ccccc4)c(C)[nH]3)co2)cc1 [compound 57] | 3 (MIC100 of 2-5 μg/ml) | 2 to 5 (≈ 6.34 to 15.9 µM) | 
Cc1[nH]c(-c2cc(C)n(-c3ccc(C(C)C)cc3)c2C)nc1-c1ccccc1 [compound 58] |  | < 1 | 
Cc1[nH]c(-c2cc(C)n(-c3ccc4c(c3)CCC4)c2C)nc1-c1ccccc1 [compound 59] |  | 2 to 5 (≈ 5.44 to 13.6 µM) | 
Cc1ccccc1-c1ccc(-c2nc(C)c(-c3ccccc3)[nH]2)o1 [compound 61] | 3 (MIC100 of 2-5 μg/ml) | 2 to 5 (≈ 6.36 to 15.9 µM) | 
Cc1cccc(C)c1-c1ccc(-c2nc(C)c(-c3ccccc3)[nH]2)o1 [compound 62] | 3 (MIC100 of 2-5 μg/ml) | 2 to 5 (≈ 6.09 to 15.2 µM) | 
FC(F)(F)Oc1ccccc1-c1ccc(-c2ncc(-c3ccccc3)[nH]2)o1 [compound 63] | 3 (MIC100 of 2-5 μg/ml) | 2 to 5 (≈ 5.4 to 13.5 µM) | 
Cc1nc(-c2ccc(-c3ccccc3N(C)C)o2)[nH]c1-c1ccccc1 [compound 71] | 3 (MIC100 of 2-5 μg/ml) | 2 to 5 (≈ 5.82 to 14.6 µM) | 
Cc1[nH]c(-c2coc(-c3ccccc3C(F)(F)F)c2)nc1-c1ccccc1 [compound 72] |  | 6 to 10 (≈ 16.3 to 27.1 µM) | 
Cc1[nH]c(-c2cnn(-c3ccccc3)n2)nc1-c1ccccc1 [compound 73] | 2 (MIC100 of 6-10 μg/ml) | 6 to 10 (≈ 19.9 to 33.2 µM) | 
Cc1[nH]c(-c2ccc(-c3ccccc3)s2)nc1-c1ccccc1 [compound 74] |  | 2 to 5 (≈ 6.32 to 15.8 µM) | 
Cc1nc(-c2ccc(-c3ccc(F)cc3F)o2)[nH]c1-c1ccc(O)cc1 [compound 80] |  |  | Antibacterial activity Staphylococcus aureus (MRSA) [2]: 2 (MIC100 of 11-20 μg/ml)
CCCc1[nH]c(-c2ccc(-c3ccccc3Cl)s2)nc1C [compound 82] |  |  | Antibacterial activity Staphylococcus aureus (MRSA) [2]: 3 (MIC100 of 3-10 μg/ml)
Cc1nc(-c2ccc(-c3ccccc3Br)o2)[nH]c1C [compound 84] | 2 (MIC100 of 6-10 μg/ml) |  | 
Cc1nc(-c2ccc(-c3ccccc3Cl)o2)[nH]c1C [compound 86] | 3 (MIC100 of 2-5 μg/ml) |  | 
CCCc1[nH]c(-c2ccc(-c3ccccc3)o2)nc1C [compound 94] |  |  | Antibacterial activity Staphylococcus aureus (MRSA) [2]: 3 (MIC100 of 3-10 μg/ml)
CCCc1nc(-c2ccc(-c3ccccc3N(C)C)o2)[nH]c1C [compound 98] |  |  | Antibacterial activity Staphylococcus aureus (MRSA) [2]: 3 (MIC100 of 3-10 μg/ml)
CCCc1nc(-c2ccc(-c3ccccc3C)o2)[nH]c1C [compound 100] |  |  | Antibacterial activity Staphylococcus aureus (MRSA) [2]: 2 (MIC100 of 11-20 μg/ml)
CCCc1nc(-c2ccc(-c3c(C)cccc3C)o2)[nH]c1C [compound 103] |  |  | Antibacterial activity Staphylococcus aureus (MRSA) [2]: 3 (MIC100 of 3-10 μg/ml)
CCCc1nc(-c2ccc(-c3ccc(C(F)(F)F)cc3)o2)[nH]c1C [compound 104] |  |  | Antibacterial activity Staphylococcus aureus (MRSA) [2]: 3 (MIC100 of 3-10 μg/ml)

SMILES | Antibacterial activity Streptococcus pneumoniae [1] | MIC [1] [mg/L] | further results
CCCc1[nH]c(-c2ccc(-c3cccc4[nH]ccc34)o2)nc1C [compound 108] |  |  | Antibacterial activity Staphylococcus aureus (MRSA) [2]: 2 (MIC100 of 11-20 μg/ml)
CCCc1[nH]c(-c2ccc(-c3ccc(Cl)cc3Cl)o2)nc1C [compound 109] |  |  | Antibacterial activity Staphylococcus aureus (MRSA) [2]: 2 (MIC100 of 11-20 μg/ml)
CCCc1[nH]c(-c2ccc(-c3ccc(O)cc3C(F)(F)F)o2)nc1C [compound 110] |  |  | Antibacterial activity Staphylococcus aureus (MRSA) [2]: 3 (MIC100 of 3-10 μg/ml)
Cc1nc(-c2ccc(-c3cccc4[nH]ccc34)o2)[nH]c1-c1ccccc1 [compound 138] | 2 (MIC100 of 6-10 μg/ml) |  | 
Cc1nc(-c2ccc(-c3ccc(O)cc3C(F)(F)F)o2)[nH]c1-c1ccccc1 [compound 139] | 3 (MIC100 of 2-5 μg/ml) |  | 
Cc1nc(-c2ccc(/C=C/c3ccccc3)o2)[nH]c1-c1ccccc1 [compound 143] | 3 (MIC100 of 2-5 μg/ml) |  | 
Cc1nc(-c2ccc(-c3ccc4[nH]ccc4c3)o2)[nH]c1-c1ccccc1 [compound 144] | 3 (MIC100 of 2-5 μg/ml) |  | 
Cc1nc(-c2ccc(-c3cccc(F)c3)o2)[nH]c1-c1ccccc1 [compound 146] | 3 (MIC100 of 2-5 μg/ml) |  | 
Cc1nc(-c2ccc(-c3ccc(F)cc3)o2)[nH]c1-c1ccccc1 [compound 148] | 3 (MIC100 of 2-5 μg/ml) |  | 
Cc1nc(-c2ccc(-c3ccc4cc[nH]c4c3)o2)[nH]c1-c1ccccc1 [compound 152] | 3 (MIC100 of 2-5 μg/ml) |  | 
Cc1nc(-c2ccc(-c3ccc(F)c(F)c3)o2)[nH]c1-c1ccccc1 [compound 153] | 3 (MIC100 of 2-5 μg/ml) |  | 
Cc1nc(-c2ccc(-c3ccc(O)c(C(F)(F)F)c3)o2)[nH]c1-c1ccccc1 [compound 155] | 3 (MIC100 of 2-5 μg/ml) |  | 
Cc1nc(-c2ccc(-c3ccc(O)c(Cl)c3)o2)[nH]c1-c1ccccc1 [compound 157] | 3 (MIC100 of 2-5 μg/ml) |  | 
Cc1nc(-c2ccc(-c3ccc(O)cc3Cl)o2)[nH]c1-c1ccccc1 [compound 158] | 3 (MIC100 of 2-5 μg/ml) |  | 
Cc1nc(-c2ccc(-c3ccc4occc4c3)o2)[nH]c1-c1ccccc1 [compound 159] | 3 (MIC100 of 2-5 μg/ml) |  | 
Cc1nc(-c2ccc(-c3cccc4cc[nH]c34)o2)[nH]c1-c1ccccc1 [compound 161] | 3 (MIC100 of 2-5 μg/ml) |  | 
Cc1[nH]c(-c2ccc(-c3ccccc3F)o2)nc1-c1ccccc1 [compound 162] | 3 (MIC100 of 2-5 μg/ml) |  | 
Cc1[nH]c(-c2ccc(-c3c(F)cccc3F)o2)nc1-c1ccccc1 [compound 163] | 3 (MIC100 of 2-5 μg/ml) |  | 
Cc1cc(F)ccc1-c1ccc(-c2nc(-c3ccccc3)c(C)[nH]2)o1 [compound 164] | 3 (MIC100 of 2-5 μg/ml) |  | 
Cc1[nH]c(-c2ccc(-c3ccc(C(C)(C)C)cc3)o2)nc1-c1ccccc1 [compound 165] | 2 (MIC100 of 6-10 μg/ml) |  | 
Cc1nc(-c2ccc(-c3ccc(O)cc3F)o2)[nH]c1-c1ccccc1 [compound 168] | 3 (MIC100 of 2-5 μg/ml) |  | 
